This note sets out measurements from ChEMBL document CHEMBL1145539 (2007).

Converted amounts (≈) assume the structure as drawn.

Experiment [1] deals with Staphylococcus aureus. The experiment in a line: Antimicrobial activity against methicillin-susceptible Staphylococcus aureus by time-kill methodology.
In experiment [2] the test system is Staphylococcus aureus. The experiment in a line: Antimicrobial activity against community-acquired methicillin-resistant Staphylococcus aureus Panton-Valentine leukocidin positive by time-kill methodology. The format is functional.
Experiment [3] concerns Staphylococcus aureus. The experiment in a line: Antimicrobial activity against community-acquired methicillin-resistant Staphylococcus aureus Panton-Valentine leukocidin negative by time-kill methodology. The format is functional.
Experiment [4] relates to Staphylococcus aureus. The experiment in a line: Antimicrobial activity against nosocomially-acquired methicillin-resistant Staphylococcus aureus by time-kill methodology. It is filed as functional.
Experiment [5] relates to Staphylococcus aureus. The experiment in a line: Antimicrobial activity against vancomycin-intermediate Staphylococcus aureus by time-kill methodology. The format is functional.
Experiment [6] concerns Staphylococcus aureus. The experiment in a line: Antimicrobial activity against vancomycin-resistant Staphylococcus aureus by time-kill methodology. It is filed as functional.

Usually MIC stands for the least concentration at which growth counts as inhibited. Low values mean a more susceptible organism, high ones a less susceptible organism. As for `CCCCCCCCCC(=O)N[C@@H](Cc1c[nH]c2ccccc12)C(=O)N[C@H](CC(N)=O)C(=O)N[C@@H](CC(=O)O)C(=O)N[C@@H]1C(=O)NCC(=O)N[C@@H](CCCN)C(=O)N[C@@H](CC(=O)O)C(=O)N[C@H](C)C(=O)N[C@@H](CC(=O)O)C(=O)NCC(=O)N[C@H](CO)C(=O)N[C@@H]([C@H](C)CC(=O)O)C(=O)N[C@@H](CC(=O)c2ccccc2N)C(=O)O[C@@H]1C`, the minimum inhibitory concentration (MIC) in the experiment with Staphylococcus aureus [1] stood at 0.25 µg/mL (≈ 0.154 µM); against Staphylococcus aureus [2], 0.5 µg/mL (≈ 0.309 µM); with Staphylococcus aureus [3], 0.5 µg/mL (≈ 0.309 µM); in the experiment with Staphylococcus aureus [4] it was 0.25 µg/mL (≈ 0.154 µM); against Staphylococcus aureus [5], 2 µg/mL (≈ 1.23 µM); in the experiment with Staphylococcus aureus [6] it was 0.25 µg/mL (≈ 0.154 µM).
Turning to `CO[C@H]1/C=C/O[C@@]2(C)Oc3c(C)c(O)c4c(O)c(c(/C=N/N5CCN(C)CC5)c(O)c4c3C2=O)NC(=O)/C(C)=C\C=C\[C@H](C)[C@H](O)[C@@H](C)[C@@H](O)[C@@H](C)[C@H](OC(C)=O)[C@@H]1C` [RIFAMPIN], the MIC in the experiment on Staphylococcus aureus [1] is 0.008 µg/mL (≈ 0.00972 µM); in the experiment on Staphylococcus aureus [2], 0.004 µg/mL (≈ 0.00486 µM); with Staphylococcus aureus [3], 0.016 µg/mL (≈ 0.0194 µM); in the experiment on Staphylococcus aureus [4], 0.004 µg/mL (≈ 0.00486 µM); with Staphylococcus aureus [5], 0.016 µg/mL (≈ 0.0194 µM); against Staphylococcus aureus [6] it was 0.008 µg/mL (≈ 0.00972 µM).
For GENTAMICIN, the MIC came to 1 µg/mL with Staphylococcus aureus [2]; 1 µg/mL in the experiment on Staphylococcus aureus [3]; 1 µg/mL against Staphylococcus aureus [4]; 1 µg/mL with Staphylococcus aureus [5]; 64 µg/mL in the experiment on Staphylococcus aureus [6].
